Measurements from patent publication US5776892A, “Anti-inflammatory peptides” (Curative Health Services, Inc., priority 1994, dated 1998).
Where two headings read alike, the source gives them in different places. No end group written: not given here.

Columns and labels:
[1] = system: myeloperoxidase activity in mouse ear; assay: Myeloperoxidase activity in AA-treated mouse ear tissue (PMN marker); assay type: in vivo; conditions: Table II
Protocol: Myeloperoxidase activity in ear tissue was measured as a marker for the presence or absence of polymorphonuclear leukocytes (PMNs) (Barone et al., 1991, J. Neurosci. Res. 29:336-345). After measurement of ear thickness, ears were dissected from the mice and homogenized in 50 mM Tris-HCL, pH 7.4 at 4° C. to give a 10% (w/v) homogenate. Aliquots of the homogenate were used to determine the amount of myeloperoxidase activity present in the tissue using o-dianisidine (Sigma Chem Co., St. Louis Mo.) and hydrogen peroxide as substrates and monitoring chromophore generation at 460 nm (Barone et al., 1991, J. Neurosci. Res. 29:336-345).

[2] = system: neutrophils; assay: Neutrophil chemotaxis to f-Met-Leu-Phe (Neuroprobe chamber, fluorescence 530 nm); assay type: cell-based; conditions: 15 min pre-exposure; read at 1 hr; FIG. 3
Protocol: (§1) The ability of CT-112 (SEQ. ID NO: 1) to inhibit chemotaxis of neutrophils in response to a variety of agents was assessed using Neuroprobe chemotaxis chambers. For these assays, neutrophils were resuspended in Hank's balanced salt solution with Ca^2+ and Mg^2+ to give a 5×10^6 cells/ml suspension after the cells were labeled with 1',7'-bis(2-carboxyethyl)-5-(6)-carboxyfluorescein. The neutrophils were exposed to CT-112 (SEQ. ID NO: 1) for approximately 15 min prior to addition to the chemotaxis chambers. CT-112 (SEQ. ID NO: 1) was present in both the top and bottom of the chambers, and the chemoattractant, either f-Met-Leu-Phe, leukotriene B4 or interleukin-8, was added to the bottom of chamber. Cells which had migrated through the membrane were determined by fluorescence at 530 nm at 1 hr after initiation of the assay.

[3] = system: neutrophils; assay: Neutrophil chemotaxis to leukotriene B4; assay type: cell-based; conditions: 15 min pre-exposure; read at 1 hr; FIG. 4
Protocol: as §1

[4] = system: neutrophils; assay: Neutrophil chemotaxis to interleukin-8; assay type: cell-based; conditions: 15 min pre-exposure; read at 1 hr; FIG. 5
Protocol: as §1

[5] = system: neutrophils; assay type: cell-based
Excerpt: In addition, CT-112 (SEQ. ID NO: 1) was not cytotoxic to neutrophils, as determined by viability testing using trypan blue exclusion (FIG. 3).

[6] = system: carrageenan-induced peritonitis; assay: Carrageenan-induced peritonitis, LTB4 and PGE2 in peritoneal lavage fluid; assay type: in vivo, mouse; conditions: 60 mg/kg/day; 24 hr post-challenge
Protocol: Mice (C57BL/6UAF, females, 12 weeks old) were implanted with Alzet mini pumps set to deliver 60 mg CT-112/kg/day. Six days post-implantation, the mice were challenged with an intraperitoneal injection of 0.3 ml of carrageenan in PBS (10 mg/ml). The peritoneal cavity was lavaged with 15 ml of Hank's Balanced Salt Solution (Ca^2+ - and Mg^2+ -free) at 24, 48 and 72 hr post-challenge. The lavage fluid was centrifuged (500 g, 5 min), fixed with LeukoStat fixative and stained with LeukoStat staining solution. The slides were analyzed under a microscope for the different types of inflammatory cells, such as macrophages, lymphocytes and neutrophils. At the 48-hr time point, 5 control mice were also lavaged. In a separate study, the peritoneal lavage fluid was analyzed for total leukotriene B4 (LTB4) and prostaglandin E2 (PGE2) content at 24 hr post-challenge (Griswold et al., 1991, Biochem. Pharmacol. 42(4):825-831).

[7] = system: type-II collagen-induced arthritis; assay type: in vivo, mouse
Protocol: Mice (DBA/1, 10-12 weeks old, Jackson Laboratories) were randomly assigned to one of 3 groups […]. CT-112 (SEQ. ID NO: 1) was prepared for injection by dissolving in sterile PBS. CT-112 (SEQ. ID NO: 1) was administered daily according to the following schedule: a) Control animals (0.1 ml of sterile PBS) (7 mice); b) Low dose CT-112 (0.1 ml sterile PBS containing 0.25 mg CT-112 at 10 mg/kg) (8 mice); and c) High dose CT-112 (0.1 ml sterile PBS containing 2.5 mg of CT-112 at 100 mg/kg) (8 mice). Three days after initial dosing with CT-112 (SEQ. ID NO: 1), all mice were injected intradermally at the base of the tail with 100 μg of bovine type-II collagen in Freund's complete adjuvant. Mice were monitored daily for the onset of disease, and weighed twice weekly with overall health status noted. Arthritis-affected animals were clinically assessed 5 times per week until 10 weeks post-immunization. Paw measurements were taken 3 times per week. Mice lacking signs of arthritis 10 weeks post-immunizationwere considered disease-free. All mice were pre-bled prior to the start of the trial, subsequently again at 2 and 4 weeks post-immunization, again at the onset of CIA, and finally at the termination of the study. Sera were separated and stored at -80° C. ELISA assays were performed to determine anti-collagen antibody concentrations. Spleen and lymph nodes were removed at sacrifice, and single cell suspensions prepared therefrom. Mitogen responses to Con A and LPS, as well as antigen-specific responses to type-II collagen, were determined. Appropriate statistical comparisons (Chi square, Student's T-test and non-parametric median comparisons) were performed using SPSS/PC software to assess the influence of CT-112 (SEQ. ID NO: 1) at both low and high doses on the incidence, onset, severity and progression of collagen-induced arthritis, the antibody response to collagen, T-cell and B-cell mitogen responses, and T-cell specific responses to type-II collagen.

[8] = Acute toxicity in mice; assay type: in vivo, mouse; conditions: intravenous 100, 500 or 1,000 mg/kg
Protocol: Acute toxicity of CT-112 (SEQ. ID NO: 1) in mice and rats was assessed. Mice were dosed by intravenous injection with CT-112 (SEQ. ID NO: 1) at 100, 500 or 1,000 mg/kg.

[9] = Acute toxicity in rats; assay type: in vivo, rat; conditions: rats, 100, 500 or 1,000 mg/kg
Protocol: Rats were dosed with CT-112 (SEQ. ID NO: 1) at 100, 500 or 1,000 mg/kg. […] All rats returned to normal appearance the day after treatment.

[10] = system: mouse bone marrow polychromatic erythrocyte; conditions: in vivo

TTSQVRPR [CT-112, octapeptide derived from platelet factor 4]
Myeloperoxidase Activity ([1]; 0.05 mg/animal/day minipump): 19.6 ± 15.6 μmole of chromophore formed/mi
Myeloperoxidase Activity ([1]; 0.1 mg/animal/day minipump): 17.0 ± 9.6 μmole of chromophore formed/mi
Myeloperoxidase Activity ([1]; 1.0 mg/animal/day minipump): 14.7 ± 13.3 μmole of chromophore formed/mi
chemotactic migration of neutrophils to f-Met-Leu-Phe [2]: effectively inhibited
chemotactic migration of neutrophils to LTB4 [3]: effectively inhibited
chemotactic migration of neutrophils to interleukin-8 [4]: not to interleukin-8
cytotoxicity to neutrophils (trypan blue exclusion) [5]: not cytotoxic
LTB4 (pg in peritoneal lavage) [6]: 16.8 ± 11.5 pg
PGE2 (pg in peritoneal lavage) [6]: 13.1 ± 6.9 pg
anti-collagen antibody reduction in serum ([7]; 4 wks post-immunization, high dose group, p=0.028, FIG. 14): statistically significant
effects on synovitis and pannus (histopathology) ([7]; both high and low doses, FIG. 13): not significant
disease-induced loss of joint architecture (histopathology) ([7]; both high and low doses, p≤0.05, FIG. 13): significantly reducing
spleen cell response to Con A and to LPS ([7]; cells from treated mice): neither immunosuppression nor immunoactivation
final incidence of CIA ([7]; high dose, 100 mg/kg daily): 50%
Maximum paw swelling ([7]; low and high dose): not influenced
final incidence of CIA ([7]; low dose, 10 mg/kg daily): 62.5%
involved paws in remission at the conclusion of the trial ([7]; low dose, 10 mg/kg daily): 25%
number of involved paws ([7]; low dose, 10 mg/kg daily, p=0.035 vs control, FIG. 11): significantly fewer paws
lesions at necropsy [8]: No lesions were visible at necropsy
mean body weight and mean body weight gain vs control [8]: no statistical differences
clinical effects ([8]; one mouse at 500 and two at 1,000 mg/kg, day of treatment): Minimal transient clinical effects (hypoactivity and hypersensitivity)
lesions at necropsy [9]: No lesions were visible at necropsy
mean body weight and mean body weight gain vs control [9]: no statistical differences
clinical effects ([9]; several rats at 500 and 1,000 mg/kg, day of treatment): Transient clinical effects (hypoactivity, hypersensitiviy, staggered gait, cyanosis and absence of righting reflex)
micronuclei [10]: did not induce a significant increase in micronuclei
